# “Also recorded” adds a separate entry of the source.
# What was measured:
# [1] = tested on: patients with major depressive disorder (MDD) or persistent depressive disorder (PDD); test: Multi-center, double-blind, randomized, placebo-controlled clinical trial of ezogabine (clinical rating scales); format: in vivo, human
# Excerpt: The well-known Montgomery-Asberg Depression Rating Scale (MADRS) is employed to capture change in overall depressive severity. […] The primary clinical outcome is a MADRS subscale composed of items 7 and 8 from the MADRS that capture symptoms of reduced motivation, low energy, and loss of interest or pleasure, which are termed “MADRS”.
# The Temporal Experience of Pleasure Scale (TEPS) is designed to capture the separate reward processing components of anticipation and consumption, mapping the PVS constructs of AM/reward expectancy and IRRA/SSRA, respectively.
# The TEPS is an 18-item self-report measurement of anticipatory (10 items) and consummatory (eight items) components of anhedonia which consists of a series of statements that must be rated according to how accurate they are for the individual. The scale differentiates the role of anticipatory pleasure (‘wanting’) from consummatory pleasure (‘liking’). The TEPS-Anticipatory sub-scale is a validated measure of anticipation of reward (higher scores are better); the TEPS-Consummatory sub-scale is a validated measure of response to receipt of reward.
# Two additional instruments include the Specific Loss of Interest and Pleasure Scale (SLIPS) and the Anticipatory and Consummatory Interpersonal Pleasure Scale (ACIPS) which offer additional unique features, including specificity for anhedonia in the context of depression, and a focus on social aspects of reward.
# The Quick Inventory of Depressive Symptomatology-Self-Report (QIDS-SR) is a validated self-report of depression.
# The CGI-S/I will provide an overall clinician-determined summary measure that takes into account all available information, including knowledge of the subject's history, psychosocial circumstances, symptoms, behavior, and the impact of the symptoms on the subject's ability to function. The CGI evaluates the severity of psychopathology from 1 to 7. The CGI-S is a widely administered clinician rated global measure of overall illness severity. Subjects are rated on a 1-7 scale where 1 corresponds to “Normal, Not at All Ill”, 2 is “Borderline Mentally Ill”, the anchor for 3 is “Mildly Ill”, the anchor for 4 is “Moderately Ill”, 5 is “Markedly Ill”, 6 is “Severely Ill”, and 7 is “Among the Most Extremely Ill Patients”. It will be administered at all subject visits. The CGI-I is a widely administered clinician rated global measure of the degree of improvement from the initial assessment in subject overall illness severity. […] It will be administered at all subject visits.
# The study procedures were conducted at the Icahn School of Medicine at Mount Sinai in New York City and at Baylor College of Medicine in Houston, Tex. Participants were between the ages of 18 and 65 and meet DSM-V criteria for major depressive disorder (MDD) or persistent depressive disorder (PDD, a chronic form of depression), as assessed by a trained rater using the Structured Clinical Interview for Diagnostic and Statistical Manual of Mental Disorders-Fifth Edition Text Revision (DSM-V-TR) Axis I Disorders, Patient Edition (SCID-I/P).
# Following screening (Day −28 to Day −2), screening data was reviewed by the site PI to determine subject eligibility. Subjects who met all inclusion criteria and none of the exclusion criteria entered into the study. All eligible participants returned to the clinics to complete the baseline assessments and undergo randomization (Day 0, Baseline). Baseline assessments included clinical evaluations, the PRT and fMRI scanning (details below). […] Randomization was balanced by using randomly permuted blocks and stratified by center. A computer-generated randomization scheme developed by the coordinating site assigned a unique treatment code, which dictated the treatment assignment and matching study drug kit for each subject. The randomization list was provided by the research pharmacist at the coordinating site to the research pharmacist at the collaboration site.
# ventral striatum (VS) = test: fMRI during the Incentive Flanker Task: activation to reward anticipation; format: in vivo, human; conditions: baseline to primary outcome visit; ezogabine compared to placebo; n=40
# Excerpt: Following screening (Day −28 to Day −2), screening data was reviewed by the site PI to determine subject eligibility. Subjects who met all inclusion criteria and none of the exclusion criteria entered into the study. All eligible participants returned to the clinics to complete the baseline assessments and undergo randomization (Day 0, Baseline). Baseline assessments included clinical evaluations, the PRT and fMRI scanning (details below). […] Randomization was balanced by using randomly permuted blocks and stratified by center. […]
# At each visit, participants completed self-report and clinician-administered rating scales performed by trained raters, and met with a study psychiatrist who assessed suicidal thinking or behavior, adverse events (AE), and changes in concomitant medications. […]
# The primary outcome measure of the study was a change in activation within the bilateral ventral striatum (VS, FIG. 1) from baseline (Study Visit 0) to the primary outcome visit (Study Visit 5) as measured by functional magnetic resonance imaging (fMRI) during the Incentive Flanker Task (IFT), a variant of the monetary incentive delay task (MID) as described above. […] Additional secondary outcome included change in behavioral symptoms of anhedonia through a computer-based task, the Probabilistic Reward Task (PRT), and global illness improvement and severity evaluated through changes in CGI-I and CGI-S scores. […]
# [2] = tested on: patients diagnosed with PTSD; test: Example 4: treatment of patients with PTSD; format: in vivo, human; conditions: 900 mg oral (300 mg TID) daily; example in present tense
# [3] = tested on: patients enduring stressful life situations; test: Example 5: inducing resilience in patients enduring stressful life situations; format: in vivo, human; conditions: 900 mg oral (300 mg TID) daily; example in present tense
# [4] = human, in vivo; cited from earlier work
# P-glycoprotein = P-glycoprotein (Homo sapiens, UniProt P08183); conditions: cited from earlier work
# P-glycoprotein, sequence (P08183 whole entry): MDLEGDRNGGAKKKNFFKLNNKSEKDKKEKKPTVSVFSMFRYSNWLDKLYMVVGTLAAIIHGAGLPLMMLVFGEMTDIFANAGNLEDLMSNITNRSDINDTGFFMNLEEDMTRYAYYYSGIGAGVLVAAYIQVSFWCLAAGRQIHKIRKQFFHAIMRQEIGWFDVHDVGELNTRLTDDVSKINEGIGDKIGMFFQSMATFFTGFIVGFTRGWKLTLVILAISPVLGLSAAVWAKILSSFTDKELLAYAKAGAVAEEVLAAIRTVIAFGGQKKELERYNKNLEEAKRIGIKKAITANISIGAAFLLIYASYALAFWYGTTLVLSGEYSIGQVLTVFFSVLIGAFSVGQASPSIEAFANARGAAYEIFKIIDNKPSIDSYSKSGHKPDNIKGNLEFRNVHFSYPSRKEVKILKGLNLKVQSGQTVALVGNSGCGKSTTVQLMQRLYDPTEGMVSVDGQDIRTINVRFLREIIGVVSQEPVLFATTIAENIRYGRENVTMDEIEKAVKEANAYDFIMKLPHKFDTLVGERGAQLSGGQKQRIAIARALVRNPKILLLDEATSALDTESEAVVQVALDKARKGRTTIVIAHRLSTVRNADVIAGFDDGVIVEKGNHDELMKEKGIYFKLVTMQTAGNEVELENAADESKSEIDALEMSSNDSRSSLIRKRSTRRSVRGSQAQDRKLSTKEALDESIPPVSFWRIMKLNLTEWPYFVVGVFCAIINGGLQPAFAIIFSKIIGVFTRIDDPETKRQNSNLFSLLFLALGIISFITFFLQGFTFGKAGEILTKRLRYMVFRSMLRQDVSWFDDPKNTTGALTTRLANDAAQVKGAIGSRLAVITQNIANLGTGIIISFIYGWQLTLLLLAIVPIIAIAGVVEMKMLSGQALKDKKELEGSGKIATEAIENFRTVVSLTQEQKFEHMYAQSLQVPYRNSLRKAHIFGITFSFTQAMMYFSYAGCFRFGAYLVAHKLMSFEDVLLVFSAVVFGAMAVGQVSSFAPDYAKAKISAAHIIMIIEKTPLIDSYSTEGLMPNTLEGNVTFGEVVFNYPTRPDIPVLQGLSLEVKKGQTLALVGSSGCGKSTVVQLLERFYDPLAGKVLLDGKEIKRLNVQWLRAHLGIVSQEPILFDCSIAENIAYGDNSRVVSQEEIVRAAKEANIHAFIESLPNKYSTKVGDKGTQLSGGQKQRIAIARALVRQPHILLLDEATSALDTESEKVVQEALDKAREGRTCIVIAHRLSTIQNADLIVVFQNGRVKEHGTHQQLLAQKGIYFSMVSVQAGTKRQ
# [5] = tested on: patients diagnosed with an anxiety disorder; test: Example 3: treatment of patients with an anxiety disorder; conditions: 900 mg oral (300 mg TID); example in present tense
# [6] = tested on: patients with treatment resistant depression (TRD); test: Sub-group analysis of the clinical trial: patients with treatment resistant depression (TRD), MADRS
# Excerpt: Treatment resistance is defined as at least one probable treatment failure as captured and by the Antidepressant Treatment form (AHTF).
compound,measurement,setting,value
"CCOC(=O)Nc1ccc(NCc2ccc(F)cc2)cc1N [ezogabine, N-[2-amino-4-(4-fluorobenzylamino)-phenyl] carbamic acid ethyl ester]","SHAPS scores, Estimate (ezogabine compared to placebo)","[1]; anhedonia, n=45, p<0.0001",−1.55
same,mean change from baseline in MADRS score,"[1]; at the primary outcome visit, ezogabine up to 900 mg/day oral",5.9±8.8 points
same,"SHAPS, Cohen's d","[1]; ezogabine compared to placebo, medium effect size",0.6
same,"MADRS, Cohen's d","[1]; ezogabine compared to placebo, n=45",0.7
same,"TEPS anticipatory subscale (TEPS-ant), Estimate","[1]; ezogabine compared to placebo, n=45, p=0.0008",1.33
same,"ACIPS, Estimate","[1]; ezogabine compared to placebo, p=0.0002",2.77
same,"SLIPS, Estimate","[1]; ezogabine compared to placebo, p=0.0009",−1.78
same,"TEPS consummatory subscale (TEPS-con), Estimate","[1]; ezogabine compared to placebo, p=0.05",0.64
same,effect on anhedonia symptoms,"[1]; human patients with depression and anhedonia, 300 mg TID oral, 5 weeks, SHAPS",successfully treated patients suffering from anhedonia; also recorded: reduction in anhedonia and related symptoms
same,change in activation to reward anticipation within ventral striatum (fMRI),ventral striatum (VS),increased response to reward in the brain
same,PTSD symptoms,[2],alleviated after treatment
same,resilience: managing emotional health and wellness,[3],better at managing their emotional health and wellness
same,median time to maximum plasma concentration (Tmax),[4],30 to 120 min
same,metabolism,[4],extensively metabolized primarily via glucuronidation and acetylation
same,P-glycoprotein active transport,P-glycoprotein,not subject to P-glycoprotein active transport
same,symptoms of anxiety,[5],rapid and sustained alleviation of their symptoms of anxiety
same,difference in MADRS change (V5 vs V0): TRD versus non-TRD patients,"[6]; TRD ezogabine, non-TRD ezogabine and placebo groups, p=0.015",even larger benefit of treatment compared to placebo in the TRD patients than in the non-TRD patients
same,"onset of improvement in MADRS scores, ezogabine TRD group","[6]; TRD patients, change over time",significant improvement after a single treatment
same,effect of treatment on MADRS in patients with TRD,"[6]; TRD patients, ezogabine 900 mg/day vs placebo, ANOVA p=0.024",greatest improvement in their MADRS scores; also recorded: significant effect of treatment; also recorded: beneficial effects compared to placebo
